{
  "source": "patent US9982242B2",
  "about": "“Protein complex capable of catalyzing asymmetric oxidation reaction and method for producing same” (SANYO FOODS CO., LTD., priority 2012, dated 2018)",
  "data": [
    {"test_system": "CLPC", "details": "1 mM", "values": [
      {"smiles": "O=C(O)CN(CCN(CC(=O)O)CC(=O)O)CC(=O)O", "note": "[EDTA]", "effect of additive on CLPC activity": "activity was completely lost"},
      {"smiles": "[Cl-].[Cl-].[Zn+2]", "note": "[ZnCl2]", "effect of additive on CLPC activity": "inhibitory activity was observed"}
    ]},
    {"test_system": "CLPC", "details": "additive 1.0 mM, CLPC 20 mg, rac-2 0.8 mM, […], 48 h", "units": {"OP/% ee of (S)-2 with additive": "% ee"}, "values": [
      {"smiles": "[Ca+2].[Cl-].[Cl-]", "note": "[CaCl2]", "OP/% ee of (S)-2 with additive": 97.7},
      {"smiles": "O=S(=O)([O-])[O-].[Cu+2]", "note": "[CuSO4]", "OP/% ee of (S)-2 with additive": 86.2},
      {"smiles": "[Cl][Fe]([Cl])[Cl]", "note": "[FeCl3]", "OP/% ee of (S)-2 with additive": 79.6},
      {"smiles": "O=S(=O)([O-])[O-].[Mg+2]", "note": "[MgSO4]", "OP/% ee of (S)-2 with additive": 91.2},
      {"smiles": "[Cl][Mn][Cl]", "note": "[MnCl2]", "OP/% ee of (S)-2 with additive": 80.4},
      {"smiles": "[Cl][Ni][Cl]", "note": "[NiCl2]", "OP/% ee of (S)-2 with additive": 77.7},
      {"smiles": "[Cl-].[Cl-].[Zn+2]", "note": "[ZnCl2]", "OP/% ee of (S)-2 with additive": 1.7},
      {"smiles": "c1cnc2c(c1)ccc1cccnc12", "note": "[o-phenanthroline]", "OP/% ee of (S)-2 with additive": 1.4}
    ]}
  ]
}
